Measurements from PubChem BioAssay AID1259321 (Sanford-Burnham Center for Chemical Genomics, 2017).
Several values for one entry are separate records, joined by “and”; a condition that tells them apart may be missing. Identical values can stand only once. Activity calls are given as the source filed them.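 Rule for the calls: active = half-maximal concentration for changing protein binding to DNA, from the fitted dose curve, below 10 micromolar; inactive = the rest.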

biological target: Nuclear receptor subfamily 1 group D member 1 (Homo sapiens) (UniProt P20393); test: Rev-erbα–DNA interaction modulators – biochemical, FITC-DNA, fluorescence polarization, dose response (AID 1259321); details: Rev-erb alpha-FITC-DNA binding
Sequence (P20393 whole entry, looked up): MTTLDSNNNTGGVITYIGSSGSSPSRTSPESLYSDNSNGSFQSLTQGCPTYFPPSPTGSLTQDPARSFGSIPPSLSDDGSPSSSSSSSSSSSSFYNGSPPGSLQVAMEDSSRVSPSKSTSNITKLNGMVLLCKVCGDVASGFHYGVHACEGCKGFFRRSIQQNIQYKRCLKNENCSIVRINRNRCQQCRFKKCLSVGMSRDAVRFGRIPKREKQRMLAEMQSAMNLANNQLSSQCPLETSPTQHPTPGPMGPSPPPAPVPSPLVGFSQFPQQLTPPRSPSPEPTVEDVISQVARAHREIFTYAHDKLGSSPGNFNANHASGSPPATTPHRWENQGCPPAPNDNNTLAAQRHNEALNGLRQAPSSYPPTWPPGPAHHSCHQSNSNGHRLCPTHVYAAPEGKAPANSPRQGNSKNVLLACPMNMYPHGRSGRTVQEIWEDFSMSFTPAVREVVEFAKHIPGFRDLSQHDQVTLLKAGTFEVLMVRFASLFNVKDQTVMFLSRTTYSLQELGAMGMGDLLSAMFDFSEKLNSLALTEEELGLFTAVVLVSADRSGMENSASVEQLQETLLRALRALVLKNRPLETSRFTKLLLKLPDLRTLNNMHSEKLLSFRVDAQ

| Compound | IC50 |
| --- | --- |
| Cc1cc(C)c2cc(C#N)c(SCC(=O)NCC3CCCO3)nc2c1 (stereo not drawn) | 3.95 µM |
| Cc1nc(SCC(=O)NC2CCCC2)c2oc3ccccc3c2n1 | 7.45 µM |
| CCOC(=O)c1c(-c2ccccc2)csc1NC(=O)/C(C#N)=C/c1ccc(O)c(OC)c1 | 7.23 µM |
| CCOC(=O)c1sc(NC(=S)NC(=O)c2cccc(OC)c2)nc1C | 8.54 µM |
| CC(C)CC[n+]1ccccc1/C=C/c1ccc(N(C)C)cc1 | inactive |
| CN(C)c1ccc(C=Cc2nccc3ccccc23)cc1 | > 40 µM (inactive) |
| N#Cc1ccsc1NC(=O)COC(=O)c1cc(Br)ccc1O | inactive |
| CCN(CC)c1ccc(/C=C2\C(=O)NC(=S)N(C)C2=O)o1 | 4.36 µM |
| Cc1cc(C)c2nc(SCC(=O)NCC3CCCO3)c(C#N)cc2c1 (stereo not drawn) | inactive |
| CCc1cc2c(C)ccc(C)c2nc1SCC(=O)Nc1c[nH]c(=O)[nH]c1=O | inactive |
| COC(=O)c1cccc(Cn2ccc3ccc(-c4ccc5ccn(C(=O)c6ccccc6C)c5c4)cc32)c1 | 2.94 µM |
| CC(=O)c1ccc(S(=O)(=O)N2CCN(c3nc4c(C)c(C)ccc4cc3C#N)CC2)cc1 | 4.57 µM |
| Brc1ccc2ncc(Br)cc2c1 | 4.22 µM |
| CCCCOC(=O)c1cc(C)nc2ccc(Br)cc12 | inactive |
| CCCC(Oc1ccc(Br)cc1)c1nc2c3cc(OC)c(OC)cc3nc(=S)n2[nH]1 (stereo not drawn) | > 40 µM (inactive) |
| COc1cccc(-n2nnnc2SCC(=O)Nc2ccc3c(c2)OCCO3)c1 | inactive |
| CCN(c1ccccc1C)S(=O)(=O)c1cc2c3c(c1)CCC(=O)N3CCC2 | > 40 µM (inactive) |
| Cc1ccc(/C=C/c2ccc(N(C)C)cc2)[n+](C)c1 | 9.09 µM |
| Cc1ccccc1CNc1ncnc2cc(Cl)ccc12 | 0.98 µM |
| CCc1nnc(NC(=O)CSc2nc3cc4c(cc3cc2CC)OCCO4)s1 | 3.66 µM |
| O=C(Nc1ccc2c(c1)C(=O)NC2=O)c1ccc2ncsc2c1 | 2.29 µM |
| O=C(CN1CCCCC1)Nc1c2c(nc3ccccc13)N(c1ccccc1)CC2 | 3.26 µM |
| CC(NC(=O)c1ccc(-c2cc(C(F)(F)F)ccc2Cl)o1)c1ccccc1 (stereo not drawn) | > 40 µM (inactive) |
| CCOc1ccccc1CNC(=O)C1CCN(c2nnc(C)c3c(C)n(-c4ccc(C)cc4)nc23)CC1 | > 40 µM (inactive) |
| Cc1c(Cl)ccc2c(C(N)=O)cc(-c3ccccn3)nc12 | 5.97 µM |
| CN1C(=O)CSC1=NCC12CC3CC(CC(C3)C1)C2 | 5.32 µM |
| CC1(C)Cc2c(c(N3CCOCC3)nc3sc4c(NN)ncnc4c23)CS1 | > 40 µM (inactive) |

| Compound | IC50 |
| --- | --- |
| CCOc1ccc(NC(=O)CSc2ncnc3c2sc2ccccc23)cc1 | 6.32 µM |
| COc1ccc(C2=NN(C(=O)CSc3ncccn3)C(c3cccc(OC)c3OC)C2)cc1 (stereo not drawn) | 1.5 µM |
| CCOC(=O)/C(C#N)=C/c1cc2ccccc2nc1N1CCCCC1 | > 40 µM (inactive) |
| CC(=O)Oc1ccc2oc(/C=C/N(C)C)c([N+](=O)[O-])c2c1 | 3.91 µM |
| Cn1c(SCC(=O)c2ccc3c(c2)Cc2ccccc2-3)nnc1-c1ccccc1 | 2.24 µM |
| COc1ccc(-n2nc3c(N4CCC(C(=O)NCc5ccccc5)CC4)nnc(C)c3c2C)cc1 | > 40 µM (inactive) |
| O=C1NC(=O)c2c(Br)c(Br)c(Br)c(Br)c21 | 1.48 µM |
| O=C(Nc1ccnc(-c2cccnc2)n1)c1ccc(Cl)cc1 | 5.12 µM |
| NS(=O)(=O)c1ccc(CNC(=O)c2cc(-c3cccnc3)nc3ccc(Br)cc23)cc1 | 0.496 µM |
| Cc1c(Cl)cc(C(C)C)c(O)c1CN1CCOCC1 | > 40 µM (inactive) |
| COc1ccc(-c2c(C)nc3c(-c4ccsc4)cnn3c2N)cc1 | 9.42 µM |
| Cc1ccc(-n2c(N)c(C#N)c(-c3ccc(Cl)cc3)c(C#N)c2=O)cc1 | 4.59 µM |
| O=C(CSc1ncnc2c1oc1ccccc12)NCc1ccc(F)cc1 | 1.26 µM |
| Cc1nc(SCC(=O)Nc2ccccc2)c2oc3ccccc3c2n1 | inactive |
| C[n+]1c2cc(N)ccc2cc2ccc(N)cc21 | 2.68 µM and 8.02 µM |
| COc1ccc2cc(C(=O)COC(=O)COc3ccc4c(C)cc(=O)oc4c3)ccc2c1 | 4.26 µM |
| Cc1cc(=O)oc2cc(OCC3CC(c4ccc(Br)cc4)=NO3)ccc12 (stereo not drawn) | 1.04 µM |
| CN1C(=O)/C(=C\c2ccc(N3CCCCC3)o2)C(=O)NC1=S | 3.49 µM |
| CN(C)/C=N/C1=C(C#N)C(c2cccs2)c2ccc3ccccc3c2O1 (stereo not drawn) | 3.95 µM |
| C=CCOc1ccc(C2C(C(=O)c3cccs3)=C(O)C(=O)N2c2nnc(C)s2)cc1 (stereo not drawn) | 3.99 µM |
| CCOC(=O)C1CCCN(c2ccc([N+](=O)[O-])c3nonc23)C1 (stereo not drawn) | > 40 µM (inactive) |
| COc1ccc(-c2cc(-c3ccccc3)nc(SCC(=O)Nc3nccs3)c2C#N)cc1 | > 40 µM (inactive) |
| Cc1cc(-c2ccccc2)nc2oc3c(c12)NC(=O)CN(c1ccccc1)C3=O | 0.378 µM |
| CN1C(=O)C(=Cc2ccc(N3CCOCC3)o2)C(=O)N(C)C1=S | 4.11 µM |
| COC(=O)c1cccc(Cn2ccc3ccc(-c4ccc5ccn(C(=O)c6ccc(C)cc6)c5c4)cc32)c1 | > 40 µM (inactive) |
| O=C(NCc1ccccc1)C(c1cc2ccccc2o1)n1c(=O)c(-c2ccccc2)nc2ccccc21 (stereo not drawn) | > 40 µM (inactive) |
